In PubChem BioAssay AID1963972 (Molecular Pharmacology Branch, DTP, NCI, 2024):

Test system: 945468-187-T-J2-PDC spheroids viability
Experiment: Anticancer human tumor 945468-187-T-J2-PDC patient-derived rectal carcinoma cell line growth inhibition [PI3K]
Conditions: spheroids with HUVEC and MSC; for IC50: curve of first compound; for viability, T/C: stronger effect = lower value
How it was run: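 Tumor cells were combined with HUVEC and MSCs into spheroids, then dosed with PI3K-inhibitor combinations over half-log ranges capped near clinical Cmax or 10 microM.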

[1] = second compound 0.00316 µM, first compound 0.0316 µM
[2] = second compound 0.00316 µM, first compound 0.1 µM
[3] = second compound 0.01 µM, first compound 0.0316 µM
[4] = second compound 0.01 µM, first compound 0.1 µM
[5] = second compound 0.0316 µM, first compound 0.0316 µM
[6] = second compound 0.0316 µM, first compound 0.1 µM
[7] = second compound 0.0316 µM, first compound 0.316 µM
[8] = second compound 0.0316 µM, first compound 1 µM
[9] = second compound 0.0316 µM, first compound 3.16 µM
[10] = second compound 0.0316 µM, first compound 10 µM
[11] = second compound 0.1 µM, first compound 0.0316 µM
[12] = second compound 0.1 µM, first compound 0.1 µM
[13] = second compound 0.1 µM, first compound 0.316 µM
[14] = second compound 0.1 µM, first compound 1 µM
[15] = second compound 0.1 µM, first compound 3.16 µM
[16] = second compound 0.1 µM, first compound 10 µM
[17] = second compound 0.316 µM, first compound 0.0316 µM
[18] = second compound 0.316 µM, first compound 0.1 µM
[19] = second compound 0.316 µM, first compound 0.316 µM
[20] = second compound 0.316 µM, first compound 1 µM
[21] = second compound 0.316 µM, first compound 3.16 µM
[22] = second compound 0.316 µM, first compound 10 µM
[23] = second compound 1 µM, first compound 0.0316 µM
[24] = second compound 1 µM, first compound 0.1 µM
[25] = second compound 1 µM, first compound 0.316 µM
[26] = second compound 1 µM, first compound 1 µM
[27] = second compound 1 µM, first compound 3.16 µM
[28] = second compound 1 µM, first compound 10 µM
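Note: spheroids exposed to compounds for seven days before reading.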

CC(C)NCC(C(=O)N1CCN(c2ncnc3c2C(C)CC3O)CC1)c1ccc(Cl)cc1 (stereo unspecified) + CC(Nc1ccc2c(c1)OCCn1cc(N3C(=O)OCC3C(F)F)nc1-2)C(N)=O
IC50 (second compound 0.00316 µM): > 10 µM | IC50 (second compound 0.01 µM): > 10 µM | IC50 (second compound 0.0316 µM): > 10 µM | IC50 (second compound 0.1 µM): > 10 µM | IC50 (second compound 0.316 µM): > 10 µM | IC50 (second compound 1 µM): > 10 µM | viability, T/C [1]: 84.4% | viability, T/C [2]: 114% | viability, T/C (second compound 0.00316 µM, first compound 0.316 µM): 79.4% | viability, T/C (second compound 0.00316 µM, first compound 1 µM): 86.4% | viability, T/C (second compound 0.00316 µM, first compound 3.16 µM): 104% | viability, T/C (second compound 0.00316 µM, first compound 10 µM): 99.3% | viability, T/C [3]: 110% | viability, T/C [4]: 92.3% | viability, T/C (second compound 0.01 µM, first compound 0.316 µM): 96.2% | viability, T/C (second compound 0.01 µM, first compound 1 µM): 71.6% | viability, T/C (second compound 0.01 µM, first compound 3.16 µM): 97.7% | viability, T/C (second compound 0.01 µM, first compound 10 µM): 98.9% | viability, T/C [5]: 93.6% | viability, T/C [6]: 89.5% | viability, T/C [7]: 95.2% | viability, T/C [8]: 90.7% | viability, T/C [9]: 96.9% | viability, T/C [10]: 92.9% | viability, T/C [11]: 121% | viability, T/C [12]: 77.1% | viability, T/C [13]: 82.8% | viability, T/C [14]: 81.3% | viability, T/C [15]: 89.9% | viability, T/C [16]: 78.4% | viability, T/C [17]: 72.5% | viability, T/C [18]: 77.2% | viability, T/C [19]: 76.2% | viability, T/C [20]: 87% | viability, T/C [21]: 84.2% | viability, T/C [22]: 81.9% | viability, T/C [23]: 76.5% | viability, T/C [24]: 65.3% | viability, T/C [25]: 75.6% | viability, T/C [26]: 71.2% | viability, T/C [27]: 68.5% | viability, T/C [28]: 59.7%

CC(=O)c1c(C)c2cnc(Nc3ccc(N4CCNCC4)cn3)nc2n(C2CCCC2)c1=O + CC(Nc1ccc2c(c1)OCCn1cc(N3C(=O)OCC3C(F)F)nc1-2)C(N)=O
IC50 (second compound 0.00316 µM): > 0.1 µM | IC50 (second compound 0.01 µM): > 0.1 µM | IC50 (second compound 0.0316 µM): > 0.1 µM | IC50 (second compound 0.1 µM): > 0.1 µM | IC50 (second compound 0.316 µM): > 0.1 µM | IC50 (second compound 1 µM): > 0.1 µM | viability, T/C (second compound 0.00316 µM, first compound 0.000316 µM): 91.5% | viability, T/C (second compound 0.00316 µM, first compound 0.001 µM): 98.4% | viability, T/C (second compound 0.00316 µM, first compound 0.00316 µM): 73.9% | viability, T/C (second compound 0.00316 µM, first compound 0.01 µM): 114% | viability, T/C [1]: 129% | viability, T/C [2]: 128% | viability, T/C (second compound 0.01 µM, first compound 0.000316 µM): 73.9% | viability, T/C (second compound 0.01 µM, first compound 0.001 µM): 109% | viability, T/C (second compound 0.01 µM, first compound 0.00316 µM): 127% | viability, T/C (second compound 0.01 µM, first compound 0.01 µM): 83.5% | viability, T/C [3]: 92.8% | viability, T/C [4]: 114% | viability, T/C (second compound 0.0316 µM, first compound 0.000316 µM): 91% | viability, T/C (second compound 0.0316 µM, first compound 0.001 µM): 101% | viability, T/C (second compound 0.0316 µM, first compound 0.00316 µM): 101% | viability, T/C (second compound 0.0316 µM, first compound 0.01 µM): 87.3% | viability, T/C [5]: 86.2% | viability, T/C [6]: 105% | viability, T/C (second compound 0.1 µM, first compound 0.000316 µM): 92.5% | viability, T/C (second compound 0.1 µM, first compound 0.001 µM): 144% | viability, T/C (second compound 0.1 µM, first compound 0.00316 µM): 84.2% | viability, T/C (second compound 0.1 µM, first compound 0.01 µM): 101% | viability, T/C [11]: 107% | viability, T/C [12]: 100% | viability, T/C (second compound 0.316 µM, first compound 0.000316 µM): 81.3% | viability, T/C (second compound 0.316 µM, first compound 0.001 µM): 87% | viability, T/C (second compound 0.316 µM, first compound 0.00316 µM): 79% | viability, T/C (second compound 0.316 µM, first compound 0.01 µM): 78.1% | viability, T/C [17]: 85.3% | viability, T/C [18]: 73.1% | viability, T/C (second compound 1 µM, first compound 0.000316 µM): 90.3% | viability, T/C (second compound 1 µM, first compound 0.001 µM): 74.5% | viability, T/C (second compound 1 µM, first compound 0.00316 µM): 70.8% | viability, T/C (second compound 1 µM, first compound 0.01 µM): 72% | viability, T/C [23]: 71.2% | viability, T/C [24]: 81.4%

C#Cc1c(F)ccc2cc(O)cc(-c3ncc4c(N5CC6CCC(C5)N6)nc(OCC56CCCN5CC(F)C6)nc4c3F)c12 (stereo unspecified) + CC(Nc1ncnc2nc[nH]c12)c1cc2cccc(Cl)c2c(=O)n1-c1ccccc1
IC50 (second compound 0.0316 µM): > 10 µM | IC50 (second compound 0.1 µM): > 10 µM | IC50 (second compound 0.316 µM): > 10 µM | IC50 (second compound 1 µM): > 10 µM | IC50 (second compound 3.16 µM): > 10 µM | IC50 (second compound 10 µM): > 10 µM | viability, T/C [5]: 101% | viability, T/C [6]: 99.8% | viability, T/C [7]: 95.8% | viability, T/C [8]: 86.4% | viability, T/C [9]: 102% | viability, T/C [10]: 117% | viability, T/C [11]: 111% | viability, T/C [12]: 110% | viability, T/C [13]: 103% | viability, T/C [14]: 134% | viability, T/C [15]: 107% | viability, T/C [16]: 106% | viability, T/C [17]: 100% | viability, T/C [18]: 116% | viability, T/C [19]: 87.1% | viability, T/C [20]: 95.3% | viability, T/C [21]: 116% | viability, T/C [22]: 111% | viability, T/C [23]: 96.3% | viability, T/C [24]: 104% | viability, T/C [25]: 113% | viability, T/C [26]: 106% | viability, T/C [27]: 96.2% | viability, T/C [28]: 114% | viability, T/C (second compound 3.16 µM, first compound 0.0316 µM): 91% | viability, T/C (second compound 3.16 µM, first compound 0.1 µM): 98.6% | viability, T/C (second compound 3.16 µM, first compound 0.316 µM): 107% | viability, T/C (second compound 3.16 µM, first compound 1 µM): 125% | viability, T/C (second compound 3.16 µM, first compound 3.16 µM): 114% | viability, T/C (second compound 3.16 µM, first compound 10 µM): 105% | viability, T/C (second compound 10 µM, first compound 0.0316 µM): 114% | viability, T/C (second compound 10 µM, first compound 0.1 µM): 140% | viability, T/C (second compound 10 µM, first compound 0.316 µM): 149% | viability, T/C (second compound 10 µM, first compound 1 µM): 99.7% | viability, T/C (second compound 10 µM, first compound 3.16 µM): 116% | viability, T/C (second compound 10 µM, first compound 10 µM): 112%
